Measured values reported in ChEMBL document CHEMBL5214889, “Therapeutic progression of quinazolines as targeted chemotherapeutic agents” (Eur J Med Chem, 2021).

How the values were obtained:
MDA-MB-231 = test: Cytotoxicity against human MDA-MB-231 cells assessed as cell growth inhibition incubated for 72 hrs by MTT assay; assay type: functional, cell-based; conditions: MDA-MB-231, 72 h
KB = test: Cytotoxicity against human KB cells assessed as cell growth inhibition incubated for 72 hrs by MTT assay; assay type: functional, cell-based
K562 [1] = test: Cytotoxicity against human K562 cells assessed as cell growth inhibition incubated for 72 hrs by MTT assay; assay type: functional, cell-based; conditions: K562, 72 h
Tubulin = test: Inhibition of tubulin polymerization (unknown origin) incubated for 30 mins in presence of GTP by spectrophotometric analysis; assay type: protein-complex assay, Homo sapiens
HCT-8 = test: Cytotoxicity against human HCT-8 cells assessed as cell growth inhibition incubated for 72 hrs by MTT assay; assay type: functional, cell-based; conditions: HCT-8, 72 h
HepG2 [2] = test: Cytotoxicity against human HepG2 cells assessed as cell growth inhibition incubated for 72 hrs by MTT assay; assay type: functional, cell-based; conditions: HepG2, 72 h
HepG2 [3] = test: Cytotoxicity against human HepG2 cells assessed as growth inhibition by MTT assay; assay type: functional, cell-based
[4] = target: Sterol 14-alpha demethylase (Trypanosoma cruzi (strain CL Brener), UniProt Q7Z1V1); test: Inhibition of Trypanosoma cruzi Sterol 14-alpha demethylase
[5] = Cytotoxicity against rat C6 cells assessed as reduction in cell viability incubated for 48 hrs by MTT assay; assay type: toxicity, cell-based
Homo sapiens = species on record: Homo sapiens; test: Activation of GABA receptor (unknown origin); conditions: filed as activator
Proline--tRNA ligase = target: T1, Proline--tRNA ligase (Plasmodium falciparum (isolate 3D7), UniProt Q8I5R7); test: Inhibition of Plasmodium falciparum 3D7 Prolyl-tRNA synthetase
T1 sequence (Q8I5R7 whole entry): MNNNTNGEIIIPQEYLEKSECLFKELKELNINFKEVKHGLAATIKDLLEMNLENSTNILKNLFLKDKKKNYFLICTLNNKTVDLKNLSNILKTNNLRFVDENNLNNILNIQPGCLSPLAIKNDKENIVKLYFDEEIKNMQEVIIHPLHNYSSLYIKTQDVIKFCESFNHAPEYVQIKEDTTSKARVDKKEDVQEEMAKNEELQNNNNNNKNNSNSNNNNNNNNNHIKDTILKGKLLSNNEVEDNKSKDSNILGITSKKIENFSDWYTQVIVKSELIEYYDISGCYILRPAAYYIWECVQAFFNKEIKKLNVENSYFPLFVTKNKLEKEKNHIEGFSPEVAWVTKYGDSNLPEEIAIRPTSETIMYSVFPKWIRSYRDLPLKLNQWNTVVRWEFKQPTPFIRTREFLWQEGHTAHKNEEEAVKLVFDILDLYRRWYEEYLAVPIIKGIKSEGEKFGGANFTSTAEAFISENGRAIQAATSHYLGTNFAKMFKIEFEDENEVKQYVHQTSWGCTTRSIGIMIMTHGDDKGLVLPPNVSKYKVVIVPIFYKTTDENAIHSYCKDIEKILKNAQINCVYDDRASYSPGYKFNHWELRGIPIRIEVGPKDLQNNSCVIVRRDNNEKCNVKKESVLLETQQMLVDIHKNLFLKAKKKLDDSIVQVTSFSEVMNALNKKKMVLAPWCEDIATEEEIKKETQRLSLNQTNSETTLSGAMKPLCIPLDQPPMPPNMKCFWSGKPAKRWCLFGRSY

K562 [6] = test: Cytotoxicity against human K562 cells; assay type: functional, cell-based
HCT-116 = test: Cytotoxicity against human HCT-116 cells; assay type: functional, cell-based
[7] = target: Phosphatidylinositol 4,5-bisphosphate 3-kinase catalytic subunit alpha isoform (Homo sapiens, UniProt P42336); test: Inhibition of PI3Kalpha (unknown origin)
HuT78 = test: Cytotoxicity against human HuT78 cells; assay type: functional, cell-based
Histone deacetylase = test: Inhibition of HDAC (unknown origin); assay type: protein assay, Homo sapiens
[8] = Inhibition of PI3K (unknown origin) by ADP-Glo assay; design: species or system Homo sapiens
MOLM-13 = test: Cytotoxicity against human MOLM-13 cells assessed as cell growth inhibition incubated for 72 hrs by MTS assay; assay type: functional, cell-based; conditions: MOLM-13, 72 h
MV4-11 = test: Cytotoxicity against human MV4-11 cells assessed as cell growth inhibition incubated for 72 hrs by MTS assay; assay type: functional, cell-based; conditions: MV4-11, 72 h
[9] = Inhibition of PDE2 (unknown origin); design: species or system Homo sapiens
[10] = Cytotoxicity against human HUVEC cells assessed as cell growth inhibition incubated for 72 hrs by SRB assay; assay type: toxicity, cell-based
[11] = target: Vascular endothelial growth factor receptor 2 (Homo sapiens, UniProt P35968); test: Inhibition of VEGFR-2 (unknown origin) using poly(Glu:Tyr)(4:1) and ATP as substrate by incubated for 1 hr by spectrophotometric based ELISA
[12] = target: Epidermal growth factor receptor (Homo sapiens, UniProt P00533); test: Inhibition of EGFR (unknown origin)
[13] = target: Phosphatidylinositol 4,5-bisphosphate 3-kinase catalytic subunit gamma isoform (Homo sapiens, UniProt P48736); test: Inhibition of PI3Kgamma (unknown origin)
[14] = Inhibition of COX (unknown origin); design: species or system Homo sapiens
[15] = target: T2, Adrenergic receptor alpha-1 (Homo sapiens, UniProt P35348+P25100+P35368); test: Antagonist activity at Adrenergic alpha-1 receptor (unknown origin); assay type: functional
T2 sequence (P35348 whole entry): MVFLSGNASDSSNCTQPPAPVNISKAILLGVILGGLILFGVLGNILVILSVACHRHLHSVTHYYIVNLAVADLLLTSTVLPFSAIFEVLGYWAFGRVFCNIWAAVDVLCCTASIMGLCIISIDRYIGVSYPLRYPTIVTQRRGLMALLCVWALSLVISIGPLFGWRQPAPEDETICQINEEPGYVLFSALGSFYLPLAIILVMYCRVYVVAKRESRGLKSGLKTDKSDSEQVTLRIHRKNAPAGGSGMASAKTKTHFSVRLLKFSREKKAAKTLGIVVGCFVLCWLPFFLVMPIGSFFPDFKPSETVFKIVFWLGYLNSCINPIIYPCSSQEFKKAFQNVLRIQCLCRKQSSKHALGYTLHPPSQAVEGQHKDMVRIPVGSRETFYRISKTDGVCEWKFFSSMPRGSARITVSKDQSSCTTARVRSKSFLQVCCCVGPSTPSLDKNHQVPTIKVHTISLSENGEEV
T2 sequence (P25100 whole entry): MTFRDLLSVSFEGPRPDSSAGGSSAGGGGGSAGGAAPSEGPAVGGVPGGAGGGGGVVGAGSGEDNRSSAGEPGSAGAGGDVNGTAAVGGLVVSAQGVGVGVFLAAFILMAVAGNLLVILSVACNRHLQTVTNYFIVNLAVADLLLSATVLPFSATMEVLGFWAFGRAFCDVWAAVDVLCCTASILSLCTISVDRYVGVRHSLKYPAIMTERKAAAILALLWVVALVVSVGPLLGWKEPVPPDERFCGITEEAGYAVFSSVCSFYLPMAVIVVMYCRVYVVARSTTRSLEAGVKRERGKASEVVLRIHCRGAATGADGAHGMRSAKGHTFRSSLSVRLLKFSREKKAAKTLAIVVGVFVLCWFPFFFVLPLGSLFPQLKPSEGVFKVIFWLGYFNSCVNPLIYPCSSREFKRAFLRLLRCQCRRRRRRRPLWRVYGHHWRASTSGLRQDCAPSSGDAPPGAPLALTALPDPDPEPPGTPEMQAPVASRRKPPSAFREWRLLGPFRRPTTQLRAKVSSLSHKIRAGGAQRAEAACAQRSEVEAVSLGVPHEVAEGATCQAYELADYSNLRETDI
T2 sequence (P35368 whole entry): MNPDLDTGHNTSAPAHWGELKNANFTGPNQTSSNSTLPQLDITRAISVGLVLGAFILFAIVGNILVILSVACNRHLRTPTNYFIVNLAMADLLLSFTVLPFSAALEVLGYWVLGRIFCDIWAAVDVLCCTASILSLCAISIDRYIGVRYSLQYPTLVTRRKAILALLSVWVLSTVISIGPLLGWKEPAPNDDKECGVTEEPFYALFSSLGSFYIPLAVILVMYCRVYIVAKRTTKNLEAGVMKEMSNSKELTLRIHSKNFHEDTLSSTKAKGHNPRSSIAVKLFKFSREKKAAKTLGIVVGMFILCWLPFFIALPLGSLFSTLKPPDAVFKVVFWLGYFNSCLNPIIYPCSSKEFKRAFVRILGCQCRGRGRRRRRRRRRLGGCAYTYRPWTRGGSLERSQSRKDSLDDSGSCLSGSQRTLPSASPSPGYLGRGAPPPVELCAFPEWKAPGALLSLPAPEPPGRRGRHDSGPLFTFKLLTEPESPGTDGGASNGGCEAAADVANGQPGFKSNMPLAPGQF

Chain of Epidermal growth factor receptor (P00533 whole entry, canonical isoform): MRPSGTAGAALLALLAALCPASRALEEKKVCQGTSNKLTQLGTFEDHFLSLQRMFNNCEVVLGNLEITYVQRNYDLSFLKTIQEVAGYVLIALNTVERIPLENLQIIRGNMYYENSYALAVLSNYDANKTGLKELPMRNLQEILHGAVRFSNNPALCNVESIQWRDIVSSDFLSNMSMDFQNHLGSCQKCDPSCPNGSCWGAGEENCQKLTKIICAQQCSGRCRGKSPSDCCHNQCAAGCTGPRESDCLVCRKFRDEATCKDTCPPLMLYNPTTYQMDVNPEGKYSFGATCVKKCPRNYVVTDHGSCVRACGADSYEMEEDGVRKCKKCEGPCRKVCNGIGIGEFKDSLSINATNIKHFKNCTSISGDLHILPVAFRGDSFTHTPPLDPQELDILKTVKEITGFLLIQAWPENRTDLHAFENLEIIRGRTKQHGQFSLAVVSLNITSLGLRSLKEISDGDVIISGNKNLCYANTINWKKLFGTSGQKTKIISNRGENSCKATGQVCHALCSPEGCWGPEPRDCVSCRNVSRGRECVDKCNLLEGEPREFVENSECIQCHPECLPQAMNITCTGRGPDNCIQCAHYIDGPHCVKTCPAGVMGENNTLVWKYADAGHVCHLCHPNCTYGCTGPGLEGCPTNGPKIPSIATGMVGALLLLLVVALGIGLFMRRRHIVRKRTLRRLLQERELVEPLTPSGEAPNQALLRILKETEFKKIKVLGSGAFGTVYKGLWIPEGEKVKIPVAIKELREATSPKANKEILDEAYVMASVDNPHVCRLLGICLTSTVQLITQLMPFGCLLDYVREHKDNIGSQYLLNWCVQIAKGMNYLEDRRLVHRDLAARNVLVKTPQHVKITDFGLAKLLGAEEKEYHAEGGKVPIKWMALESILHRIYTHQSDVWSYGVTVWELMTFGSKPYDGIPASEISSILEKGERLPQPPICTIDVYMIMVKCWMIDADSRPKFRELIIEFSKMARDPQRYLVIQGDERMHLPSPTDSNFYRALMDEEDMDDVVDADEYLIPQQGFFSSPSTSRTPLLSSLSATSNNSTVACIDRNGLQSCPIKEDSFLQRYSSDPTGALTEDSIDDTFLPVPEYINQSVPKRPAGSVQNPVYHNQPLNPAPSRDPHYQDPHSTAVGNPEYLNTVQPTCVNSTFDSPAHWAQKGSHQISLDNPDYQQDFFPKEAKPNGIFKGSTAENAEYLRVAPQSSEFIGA
Chain of Phosphatidylinositol 4,5-bisphosphate 3-kinase catalytic subunit alpha isoform (P42336 whole entry, canonical isoform): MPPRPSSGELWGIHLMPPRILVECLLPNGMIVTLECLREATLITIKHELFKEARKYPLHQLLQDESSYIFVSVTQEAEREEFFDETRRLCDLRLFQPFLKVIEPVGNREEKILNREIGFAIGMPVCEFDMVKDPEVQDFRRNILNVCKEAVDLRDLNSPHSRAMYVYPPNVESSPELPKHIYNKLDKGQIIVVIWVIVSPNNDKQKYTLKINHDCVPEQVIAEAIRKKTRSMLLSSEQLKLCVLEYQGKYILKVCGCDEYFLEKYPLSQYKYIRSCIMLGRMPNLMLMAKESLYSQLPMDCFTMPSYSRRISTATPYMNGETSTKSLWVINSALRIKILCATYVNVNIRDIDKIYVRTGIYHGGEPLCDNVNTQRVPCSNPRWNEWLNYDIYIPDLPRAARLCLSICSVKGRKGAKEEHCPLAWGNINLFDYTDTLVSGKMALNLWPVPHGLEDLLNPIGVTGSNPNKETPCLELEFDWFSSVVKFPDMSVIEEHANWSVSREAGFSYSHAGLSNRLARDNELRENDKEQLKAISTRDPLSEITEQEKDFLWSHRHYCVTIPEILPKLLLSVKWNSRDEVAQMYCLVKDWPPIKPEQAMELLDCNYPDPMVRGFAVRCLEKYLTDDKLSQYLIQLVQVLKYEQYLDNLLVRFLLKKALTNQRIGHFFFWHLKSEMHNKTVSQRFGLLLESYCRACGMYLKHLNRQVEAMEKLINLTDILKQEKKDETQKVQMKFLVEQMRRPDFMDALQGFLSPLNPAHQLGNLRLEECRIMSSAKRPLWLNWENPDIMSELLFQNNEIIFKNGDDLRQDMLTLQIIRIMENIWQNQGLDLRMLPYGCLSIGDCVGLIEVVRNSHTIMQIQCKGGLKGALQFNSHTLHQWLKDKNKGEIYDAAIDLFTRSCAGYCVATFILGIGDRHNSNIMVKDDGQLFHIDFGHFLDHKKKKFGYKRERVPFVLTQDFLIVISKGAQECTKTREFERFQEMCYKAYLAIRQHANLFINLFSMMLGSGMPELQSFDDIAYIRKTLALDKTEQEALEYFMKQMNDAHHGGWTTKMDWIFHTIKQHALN
Chain of Sterol 14-alpha demethylase (Q7Z1V1 whole entry): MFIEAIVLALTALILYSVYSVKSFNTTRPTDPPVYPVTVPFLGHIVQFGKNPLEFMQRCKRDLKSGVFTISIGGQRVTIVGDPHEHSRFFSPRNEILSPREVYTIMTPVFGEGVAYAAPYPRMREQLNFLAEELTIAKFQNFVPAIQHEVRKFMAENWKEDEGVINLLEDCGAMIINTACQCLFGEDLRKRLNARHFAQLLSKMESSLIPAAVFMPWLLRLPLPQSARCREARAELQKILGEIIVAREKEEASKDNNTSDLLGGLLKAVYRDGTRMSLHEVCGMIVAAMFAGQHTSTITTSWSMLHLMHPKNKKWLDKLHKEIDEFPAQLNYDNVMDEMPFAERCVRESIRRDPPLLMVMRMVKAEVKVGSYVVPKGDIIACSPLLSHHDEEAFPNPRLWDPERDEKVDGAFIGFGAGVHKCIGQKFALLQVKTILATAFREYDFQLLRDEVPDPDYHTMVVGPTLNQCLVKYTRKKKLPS
Chain of Vascular endothelial growth factor receptor 2 (P35968 whole entry): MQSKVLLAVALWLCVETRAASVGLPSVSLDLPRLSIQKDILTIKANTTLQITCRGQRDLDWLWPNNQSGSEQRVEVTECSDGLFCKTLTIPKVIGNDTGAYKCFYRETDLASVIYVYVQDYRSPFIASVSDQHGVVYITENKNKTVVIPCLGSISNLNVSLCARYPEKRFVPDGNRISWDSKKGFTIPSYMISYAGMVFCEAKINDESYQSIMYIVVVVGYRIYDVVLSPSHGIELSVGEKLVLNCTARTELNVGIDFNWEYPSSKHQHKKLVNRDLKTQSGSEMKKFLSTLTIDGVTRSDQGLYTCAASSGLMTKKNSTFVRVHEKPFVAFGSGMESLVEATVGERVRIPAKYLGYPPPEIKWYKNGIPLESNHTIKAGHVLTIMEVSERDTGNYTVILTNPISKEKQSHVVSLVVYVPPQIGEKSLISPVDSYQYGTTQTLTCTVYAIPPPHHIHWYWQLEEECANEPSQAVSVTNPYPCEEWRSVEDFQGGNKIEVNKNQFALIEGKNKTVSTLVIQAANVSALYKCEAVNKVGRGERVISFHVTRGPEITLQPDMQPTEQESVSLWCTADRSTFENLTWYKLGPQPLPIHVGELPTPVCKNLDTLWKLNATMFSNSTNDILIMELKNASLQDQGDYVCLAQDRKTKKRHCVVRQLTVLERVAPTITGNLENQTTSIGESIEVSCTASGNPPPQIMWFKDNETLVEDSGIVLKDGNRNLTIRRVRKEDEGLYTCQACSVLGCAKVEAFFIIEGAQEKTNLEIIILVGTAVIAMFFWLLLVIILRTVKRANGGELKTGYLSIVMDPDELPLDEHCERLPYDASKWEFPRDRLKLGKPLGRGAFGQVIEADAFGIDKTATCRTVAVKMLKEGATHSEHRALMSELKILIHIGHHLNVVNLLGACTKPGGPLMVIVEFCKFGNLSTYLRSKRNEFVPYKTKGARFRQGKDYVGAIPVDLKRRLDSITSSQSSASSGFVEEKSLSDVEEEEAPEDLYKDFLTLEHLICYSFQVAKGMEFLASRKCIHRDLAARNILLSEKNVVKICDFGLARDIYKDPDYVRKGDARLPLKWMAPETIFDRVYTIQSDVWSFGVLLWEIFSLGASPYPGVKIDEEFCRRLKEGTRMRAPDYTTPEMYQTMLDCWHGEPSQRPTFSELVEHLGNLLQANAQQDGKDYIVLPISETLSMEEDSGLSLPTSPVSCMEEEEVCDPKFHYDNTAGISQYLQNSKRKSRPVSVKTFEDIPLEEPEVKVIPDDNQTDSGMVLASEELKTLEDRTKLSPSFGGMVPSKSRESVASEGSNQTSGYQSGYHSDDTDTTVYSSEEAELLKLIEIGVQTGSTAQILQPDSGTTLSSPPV

For COc1ccc(N(C)c2nc(NCc3cccnc3)nc3ccccc23)cc1, which IC50 (MDA-MB-231) is on record?
Its IC50 is 110 nM.

What about the IC50 (KB) of the same molecule?
Its IC50 is 110 nM.

And the IC50 (K562 [1])?
Its IC50 is 110 nM.

What about the IC50 (Tubulin) of the same molecule?
The IC50 was 2450 nM.

And the IC50 (HCT-8)?
Its IC50 is 110 nM.

What about the IC50 (HepG2 [2]) of the same molecule?
Its IC50 is 110 nM.

Which IC50 (HepG2 [3]) does the source give for COc1cccc2c1C(=O)c1c(O)c3c(c(O)c1C2=O)C[C@@](O)(C(=O)CO)C[C@@H]3O[C@H]1C[C@H](N)[C@H](O)[C@H](C)O1 [DOXORUBICIN] here?
Its IC50 is 60300 nM.

With C[C@@H](n1cnc2cc(Cl)ccc2c1=O)[C@](O)(Cn1cncn1)c1ccc(F)cc1F [ALBACONAZOLE] as the molecule, how does the IC50 [4] read?
The IC50 was 1 nM.

For COc1cc([C@@H]2c3cc4c(cc3[C@@H](O[C@@H]3O[C@@H]5CO[C@@H](C)O[C@H]5[C@H](O)[C@H]3O)[C@H]3COC(=O)[C@H]23)OCO4)cc(OC)c1O [ETOPOSIDE], which IC50 at 48 h [5] is on record?
Its IC50 at 48 h is 4320 nM.

For Cc1ccccc1-n1c(C)nc2ccccc2c1=O, which ED50 (Homo sapiens) is on record?
Its ED50 is 400 µmol/kg.

With O=C(C[C@H]1NCCC[C@@H]1O)Cn1cnc2ccccc2c1=O as the molecule, how does the EC50 (Proline--tRNA ligase) read?
Its EC50 is 4 nM.

With O=C(CCCCCOc1ccc2c(c1)N=C(NC(=O)c1ccccc1)N1CCN=C21)NO as the molecule, how does the IC50 (K562 [6]) read?
Its IC50 is 95 nM.

What about the IC50 (HCT-116) of the same molecule?
The IC50 was 330 nM.

And the IC50 [7]?
Its IC50 is 2.98 nM.

What about the IC50 (HuT78) of the same molecule?
The IC50 was 62 nM.

What about the IC50 (Histone deacetylase) of the same molecule?
The IC50 was 50 nM.

Which IC50 [8] does the source give for COc1cc(C2Sc3ccccc3C(=O)N2NC(=O)c2ccc(-n3c(-c4ccncc4)nc4ccccc4c3=O)cc2)ccc1O (centres undefined) here?
The IC50 was 31900 nM.

What about the IC50 (HepG2 [3]) of the same molecule?
Its IC50 is 60300 nM.

Which IC50 at 48 h [5] does the source give for OC1Nc2ccccc2-c2cc(-c3ccc(Cl)cc3)nn21 (centres undefined) here?
Its IC50 at 48 h is 3860 nM.

What does the source list for CN(C)CCCOc1ccc2c(NCCc3cnc(NC(=O)Nc4cccc(Cl)c4)s3)ncnc2c1?
EC50 (MOLM-13): 5 nM; EC50 (MV4-11): 5 nM

For O=c1cc(N2CCOCC2)oc2c(-c3ccccc3)cccc12 [LY-294002], which IC50 [8] is on record?
Its IC50 is 57300 nM.

With O=C1CN2Cc3c(ccc(Cl)c3Cl)N=C2N1 [ANAGRELIDE] as the molecule, how does the IC50 [9] read?
Its IC50 is 26 nM.

With COc1cc2ncnc(-n3ncc4cc(NC(=O)Nc5ccc(C)c(Cl)c5)ccc43)c2cc1OC as the molecule, how does the IC50 at 72 h [10] read?
The IC50 at 72 h was 1800 nM.

What about the IC50 [11] of the same molecule?
Its IC50 is 12 nM.

With Cc1ccc2c(-c3ccccc3)nc(=O)n(C(C)C)c2c1 [PROQUAZONE] as the molecule, how does the IC50 [12] read?
The IC50 was 2 nM.

Which IC50 [13] does the source give for NC(=O)c1cc(-c2ccc3ncnc(-c4cccc(C(=O)NCCN5CCOCC5)c4)c3c2)ccc1Cl here?
The IC50 was 17 nM.

Which IC50 [14] does the source give for COc1cc2nc(N3CCN(C(=O)c4ccco4)CC3)nc(N)c2cc1OC [PRAZOSIN] here?
Its IC50 is 1900 nM.

With CCCC(=O)N1CCCN(c2nc(N)c3cc(OC)c(OC)cc3n2)CC1 [BUNAZOSIN] as the molecule, how does the IC50 [15] read?
The IC50 was 1.22 nM.
